Publication doi:10.1101/2023.03.24.534094v2 (biorxiv, 2023)
Where two headings read alike, the source gives them in different places.

Key:
MST3 [1] = target: T1, MST3 (Homo sapiens, UniProt Q9Y6E0); experiment: biochemical
PAK1 [2] = target: T2, PAK1 (Homo sapiens, UniProt Q13153); experiment: biochemical
AurA = target: T3, AurA (Homo sapiens, UniProt O14965); experiment: biochemical
T3 sequence (O14965 1-403): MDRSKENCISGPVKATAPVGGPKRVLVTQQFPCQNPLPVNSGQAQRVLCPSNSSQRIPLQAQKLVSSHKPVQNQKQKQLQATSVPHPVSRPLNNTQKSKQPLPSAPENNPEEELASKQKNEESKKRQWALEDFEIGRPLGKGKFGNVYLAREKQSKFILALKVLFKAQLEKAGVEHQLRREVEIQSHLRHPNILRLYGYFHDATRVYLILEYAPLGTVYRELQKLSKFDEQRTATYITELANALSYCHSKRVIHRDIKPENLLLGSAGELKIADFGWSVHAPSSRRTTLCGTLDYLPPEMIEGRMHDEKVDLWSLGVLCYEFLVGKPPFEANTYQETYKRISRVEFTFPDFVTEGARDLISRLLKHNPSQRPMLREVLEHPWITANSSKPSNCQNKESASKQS

DMPK1 = target: T4, DMPK1 (Homo sapiens, UniProt Q09013); experiment: biochemical
T4 sequence (Q09013 1-629): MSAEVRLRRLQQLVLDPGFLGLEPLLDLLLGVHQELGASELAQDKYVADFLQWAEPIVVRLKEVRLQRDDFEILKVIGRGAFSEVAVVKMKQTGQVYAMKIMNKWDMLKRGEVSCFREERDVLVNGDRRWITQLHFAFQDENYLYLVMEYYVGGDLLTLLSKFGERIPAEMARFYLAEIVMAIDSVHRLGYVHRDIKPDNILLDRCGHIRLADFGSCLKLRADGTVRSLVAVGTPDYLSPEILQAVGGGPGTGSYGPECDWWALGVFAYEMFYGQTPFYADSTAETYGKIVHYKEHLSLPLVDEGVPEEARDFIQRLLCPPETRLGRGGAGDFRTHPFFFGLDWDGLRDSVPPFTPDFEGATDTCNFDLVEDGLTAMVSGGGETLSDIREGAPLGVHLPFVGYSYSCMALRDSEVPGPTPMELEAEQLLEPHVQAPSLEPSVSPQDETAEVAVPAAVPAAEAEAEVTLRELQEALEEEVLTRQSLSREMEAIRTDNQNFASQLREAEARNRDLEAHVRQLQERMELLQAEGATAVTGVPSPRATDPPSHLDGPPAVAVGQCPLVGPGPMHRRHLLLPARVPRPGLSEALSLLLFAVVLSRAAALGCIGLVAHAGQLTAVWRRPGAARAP

GSK3B = GSK3B (Homo sapiens, UniProt P49841); experiment: biochemical
GSK3B, sequence (P49841 whole entry): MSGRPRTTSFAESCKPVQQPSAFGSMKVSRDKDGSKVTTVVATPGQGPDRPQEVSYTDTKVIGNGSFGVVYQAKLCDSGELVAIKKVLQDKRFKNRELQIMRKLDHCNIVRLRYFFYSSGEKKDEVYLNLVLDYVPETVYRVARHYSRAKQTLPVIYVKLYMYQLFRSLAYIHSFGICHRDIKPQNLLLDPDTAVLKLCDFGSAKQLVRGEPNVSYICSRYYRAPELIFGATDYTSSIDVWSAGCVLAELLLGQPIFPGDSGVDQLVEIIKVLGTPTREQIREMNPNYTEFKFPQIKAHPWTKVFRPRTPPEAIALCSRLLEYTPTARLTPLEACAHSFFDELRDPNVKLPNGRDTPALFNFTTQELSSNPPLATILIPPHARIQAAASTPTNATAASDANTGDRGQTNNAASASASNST

MST3 [3] = target: T1, MST3; experiment: biochemical; remark: listed apart in the source
PAK1 [4] = target: T2, PAK1; experiment: biochemical; remark: listed apart in the source
EpHB4 = target: T5, EpHB4 (Homo sapiens, UniProt P54760); experiment: NanoBRET target engagement; type: cell-based
T5 sequence (P54760 16-987): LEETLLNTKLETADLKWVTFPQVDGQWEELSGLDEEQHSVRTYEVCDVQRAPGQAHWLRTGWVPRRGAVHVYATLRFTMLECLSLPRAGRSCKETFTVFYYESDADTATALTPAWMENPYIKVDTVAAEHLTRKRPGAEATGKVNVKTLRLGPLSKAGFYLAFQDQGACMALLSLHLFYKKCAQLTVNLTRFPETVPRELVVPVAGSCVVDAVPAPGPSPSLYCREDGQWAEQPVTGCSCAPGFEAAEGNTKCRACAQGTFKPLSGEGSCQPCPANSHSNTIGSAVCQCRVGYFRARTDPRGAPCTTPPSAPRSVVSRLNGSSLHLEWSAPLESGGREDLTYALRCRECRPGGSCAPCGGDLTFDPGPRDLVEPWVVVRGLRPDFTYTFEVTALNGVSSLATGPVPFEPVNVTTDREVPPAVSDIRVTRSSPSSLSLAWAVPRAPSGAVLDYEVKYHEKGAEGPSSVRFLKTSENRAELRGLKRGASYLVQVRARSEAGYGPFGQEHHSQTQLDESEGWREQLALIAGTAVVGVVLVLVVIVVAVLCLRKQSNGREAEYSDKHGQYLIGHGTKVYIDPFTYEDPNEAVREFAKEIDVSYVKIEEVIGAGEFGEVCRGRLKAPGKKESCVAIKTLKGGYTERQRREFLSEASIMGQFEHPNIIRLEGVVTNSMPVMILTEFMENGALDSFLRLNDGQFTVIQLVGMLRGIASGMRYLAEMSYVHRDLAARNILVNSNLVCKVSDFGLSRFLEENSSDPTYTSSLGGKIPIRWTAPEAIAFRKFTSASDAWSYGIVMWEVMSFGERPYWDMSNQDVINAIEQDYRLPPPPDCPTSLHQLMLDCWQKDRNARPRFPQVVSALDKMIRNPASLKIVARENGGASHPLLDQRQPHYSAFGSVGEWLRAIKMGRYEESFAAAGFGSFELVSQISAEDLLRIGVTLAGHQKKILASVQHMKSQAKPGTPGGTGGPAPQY

EpHA4 = EpHA4 (Homo sapiens, UniProt P54764); experiment: biochemical
EpHA4, sequence (P54764 whole entry): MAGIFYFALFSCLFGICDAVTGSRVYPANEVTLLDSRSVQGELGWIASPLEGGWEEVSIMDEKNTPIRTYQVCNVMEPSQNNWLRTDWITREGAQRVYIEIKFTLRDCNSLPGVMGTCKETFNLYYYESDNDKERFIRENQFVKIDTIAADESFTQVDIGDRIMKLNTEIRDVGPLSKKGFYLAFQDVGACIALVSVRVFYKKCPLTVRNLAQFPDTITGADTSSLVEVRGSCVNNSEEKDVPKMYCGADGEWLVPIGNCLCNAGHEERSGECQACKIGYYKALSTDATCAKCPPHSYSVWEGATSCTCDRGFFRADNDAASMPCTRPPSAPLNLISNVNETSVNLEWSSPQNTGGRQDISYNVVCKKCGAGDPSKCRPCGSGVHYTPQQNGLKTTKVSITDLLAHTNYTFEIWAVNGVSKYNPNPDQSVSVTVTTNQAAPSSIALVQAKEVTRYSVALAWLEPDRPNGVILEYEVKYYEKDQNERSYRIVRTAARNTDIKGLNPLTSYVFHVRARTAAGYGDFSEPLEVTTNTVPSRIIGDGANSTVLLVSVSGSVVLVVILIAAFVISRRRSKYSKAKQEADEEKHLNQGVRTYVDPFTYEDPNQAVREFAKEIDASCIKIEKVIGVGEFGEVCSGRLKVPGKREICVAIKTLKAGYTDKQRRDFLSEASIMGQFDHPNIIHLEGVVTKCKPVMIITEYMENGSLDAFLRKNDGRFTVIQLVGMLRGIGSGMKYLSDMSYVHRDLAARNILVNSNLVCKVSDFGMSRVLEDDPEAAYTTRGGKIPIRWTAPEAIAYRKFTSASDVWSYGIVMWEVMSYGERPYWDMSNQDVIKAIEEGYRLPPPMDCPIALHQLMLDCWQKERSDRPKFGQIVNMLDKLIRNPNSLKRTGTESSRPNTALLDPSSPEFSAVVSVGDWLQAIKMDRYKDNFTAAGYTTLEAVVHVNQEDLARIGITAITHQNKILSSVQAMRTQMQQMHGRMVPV

T1 sequence (Q9Y6E0 whole entry): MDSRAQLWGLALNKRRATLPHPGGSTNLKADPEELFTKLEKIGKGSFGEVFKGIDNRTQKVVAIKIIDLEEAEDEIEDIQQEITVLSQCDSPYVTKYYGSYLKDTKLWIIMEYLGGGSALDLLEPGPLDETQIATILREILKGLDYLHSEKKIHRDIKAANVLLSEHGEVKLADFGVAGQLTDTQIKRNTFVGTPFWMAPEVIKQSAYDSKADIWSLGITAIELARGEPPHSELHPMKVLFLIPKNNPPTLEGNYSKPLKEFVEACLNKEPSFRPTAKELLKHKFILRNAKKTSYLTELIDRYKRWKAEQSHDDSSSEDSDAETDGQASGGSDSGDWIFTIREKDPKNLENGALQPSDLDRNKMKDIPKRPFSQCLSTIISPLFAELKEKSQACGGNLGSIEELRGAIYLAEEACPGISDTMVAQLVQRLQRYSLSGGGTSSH
T2 sequence (Q13153 whole entry): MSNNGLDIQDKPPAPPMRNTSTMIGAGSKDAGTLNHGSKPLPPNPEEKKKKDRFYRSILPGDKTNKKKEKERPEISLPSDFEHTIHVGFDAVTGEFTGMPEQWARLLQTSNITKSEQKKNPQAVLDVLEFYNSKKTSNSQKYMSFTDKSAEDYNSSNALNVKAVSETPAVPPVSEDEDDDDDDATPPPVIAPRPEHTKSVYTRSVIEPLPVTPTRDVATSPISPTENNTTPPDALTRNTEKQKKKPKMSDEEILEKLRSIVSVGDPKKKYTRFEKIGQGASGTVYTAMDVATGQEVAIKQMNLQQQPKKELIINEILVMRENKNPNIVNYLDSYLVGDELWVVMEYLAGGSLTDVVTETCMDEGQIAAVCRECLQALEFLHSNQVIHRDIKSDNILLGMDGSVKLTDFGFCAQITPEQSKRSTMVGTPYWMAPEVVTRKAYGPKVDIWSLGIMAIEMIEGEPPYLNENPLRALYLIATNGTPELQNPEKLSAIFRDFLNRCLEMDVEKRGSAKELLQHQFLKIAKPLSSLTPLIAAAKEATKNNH

Structure (SMILES): CNc1ncc2cc(-c3cc(Cl)ccc3Br)c(=O)n(CCCCN)c2n1 [compound 10, 8-(4-Aminobutyl)-6-(2-bromo-5-chlorophenyl)-2-(methylamino)pyrido[2,3-d]pyrimidin-7(8H)-one]
- ΔTm at 10 µM (MST3 [1]; read-out: ∆Tm 10): 2 °C
- ΔTm at 10 µM (PAK1 [2]; read-out: ∆Tm 10): 0.6 °C

Structure (SMILES): CNc1ncc2cc(-c3ccc(-c4cccc(C)n4)cc3Cl)c(=O)n(CC3OCC(N)CO3)c2n1 (stereo not shown) [compound 2, G-5555]
- dTm G-5555 (2) (AurA; 10 µM, binder): 8.5 °C
- dTm G-5555 (2) (DMPK1; 10 µM, binder): -0.3 °C
- dTm G-5555 (2) (GSK3B; 10 µM, binder): 0.1 °C
- ∆Tm G-5555 (2) (MST3 [3]; 10 µM, binder): 7.5 degC
- ∆Tm G-5555 (2) (PAK1 [4]; 10 µM, binder): 6.4 degC

Structure (SMILES): CNc1ncc2cc(-c3cc(Cl)ccc3Cl)c(=O)n(CCCCN)c2n1 [compound 8, 8-(4-Aminobutyl)-6-(2,5-dichlorophenyl)-2-(methylamino)pyrido[2,3-d]pyrimidin-7(8H)-one]
- IC50 (EpHB4): 188 ± 17 nM
- ΔTm at 10 µM (MST3 [1]; read-out: ∆Tm 8): 1.9 °C
- ΔTm at 10 µM (PAK1 [2]; read-out: ∆Tm 8): 0.7 °C

Structure (SMILES): CNc1ncc2cc(-c3cc(Br)ccc3Cl)c(=O)n(CCCCN)c2n1 [compound 6, 8-(4-Aminobutyl)-6-(5-bromo-2-chlorophenyl)-2-(methylamino)pyrido[2,3-d]pyrimidin-7(8H)-one]
- ΔTm at 10 µM (AurA; read-out: dTm 6): 1.9 °C
- ΔTm at 10 µM (DMPK1; read-out: dTm 6): 1.2 °C
- ΔTm at 10 µM (GSK3B; read-out: dTm 6): 1 °C
- ΔTm at 10 µM (MST3 [3]; read-out: ∆Tm 6): 2.7 °C

Structure (SMILES): CNc1ncc2cc(-c3cc(F)ccc3F)c(=O)n(CCCCN)c2n1 [compound 5, 8-(4-Aminobutyl)-6-(2,5-difluorophenyl)-2-(methylamino)pyrido[2,3-d]pyrimidin-7(8H)-one]
- IC50 (EpHB4; intact mode, HEK293T, 37 °C, 2 h, tracer displacement): 607 ± 37 nM
- ΔTm at 10 µM (AurA; read-out: dTm MR22 (5)): -3 °C
- ΔTm at 10 µM (DMPK1; read-out: dTm MR22 (5)): 0.9 °C
- ΔTm at 10 µM (EpHA4; read-out: dTm MR22 (5)): 3 °C
- ΔTm at 10 µM (GSK3B; read-out: dTm MR22 (5)): 1.6 °C
- ΔTm at 10 µM (MST3 [3]; read-out: ∆Tm MR22 (5)): 1.6 °C

Structure (SMILES): CNc1ncc2cc(-c3ccccc3Cl)c(=O)n(CCCCN)c2n1 [compound 4, 8-(4-Aminobutyl)-6-(2-chlorophenyl)-2-(methylamino)pyrido[2,3-d]pyrimidin-7(8H)-one]
- IC50 (EpHB4): 50 ± 12 nM
- ΔTm at 10 µM (DMPK1; read-out: dTm MR21 (4)): 2.8 °C
- ΔTm at 10 µM (EpHA4; read-out: dTm MR21 (4)): 4.9 °C
- ΔTm at 10 µM (GSK3B; read-out: dTm MR21 (4)): 2.7 °C
- ΔTm at 10 µM (MST3 [3]; read-out: ∆Tm MR21 (4)): 4.1 °C
- ΔTm at 10 µM (PAK1 [4]; read-out: ∆Tm MR21 (4)): 1.6 °C

Structure (SMILES): CNc1ncc2cc(-c3cc(Br)ccc3Cl)c(=O)n(C[C@H]3OC[C@H](N)CO3)c2n1 [compound 7, 8-(((2r,5r)-5-Amino-1,3-dioxan-2-yl)methyl)-6-(5-bromo-2-chlorophenyl)-2-(methylamino)pyrido[2,3-d]pyrimidin-7(8H)-one]
- ΔTm at 10 µM (AurA; read-out: dTm 7): 1.4 °C
- ΔTm at 10 µM (DMPK1; read-out: dTm 7): -0.1 °C
- ΔTm at 10 µM (EpHA4; read-out: dTm 7): 3.6 °C
- ΔTm at 10 µM (GSK3B; read-out: dTm 7): 0.3 °C
- ΔTm at 10 µM (MST3 [3]; read-out: ∆Tm 7): 0.8 °C
- ΔTm at 10 µM (PAK1 [4]; read-out: ∆Tm 7): 0.6 °C

Structure (SMILES): CNc1ncc2cc(-c3cc(Br)ccc3Br)c(=O)n(CCCCN)c2n1 [compound 11, 8-(4-Aminobutyl)-6-(2,5-dibromophenyl)-2-(methylamino)pyrido[2,3-d]pyrimidin-7(8H)-one]
- ΔTm at 10 µM (MST3 [1]; read-out: ∆Tm 11): 1.9 °C
- ΔTm at 10 µM (PAK1 [2]; read-out: ∆Tm 11): 0.7 °C
